The target in one assay is T1, aromatase enzyme (Homo sapiens, UniProt P11511).
T1 sequence (P11511 1-503): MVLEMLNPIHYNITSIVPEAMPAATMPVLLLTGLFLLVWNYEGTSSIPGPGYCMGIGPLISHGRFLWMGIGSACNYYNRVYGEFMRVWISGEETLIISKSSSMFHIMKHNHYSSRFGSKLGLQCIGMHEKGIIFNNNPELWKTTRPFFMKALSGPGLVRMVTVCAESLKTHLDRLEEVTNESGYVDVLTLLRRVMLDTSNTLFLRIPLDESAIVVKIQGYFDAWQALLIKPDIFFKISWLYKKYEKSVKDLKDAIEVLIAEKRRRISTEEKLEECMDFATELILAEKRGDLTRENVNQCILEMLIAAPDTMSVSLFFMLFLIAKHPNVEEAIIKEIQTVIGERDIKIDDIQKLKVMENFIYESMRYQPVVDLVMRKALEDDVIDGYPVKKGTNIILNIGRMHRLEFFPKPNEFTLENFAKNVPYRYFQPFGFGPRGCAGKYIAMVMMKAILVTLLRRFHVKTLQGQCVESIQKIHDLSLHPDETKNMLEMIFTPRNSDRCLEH
The settings on record: in-vitro; cited from earlier work.

For a further assay, the system named is male subjects. The assay can be described thus: Open label study: 300 mg a-trione bid for three weeks, endocrine markers in resting AM blood draws. The class given is in vivo, human. Details: Free Testosterone: unit not given here. The settings on record: for Total Testosterone: 300 mg bid oral, six male subjects, Week 0 baseline 443.67; for Estradiol / Sex Hormone Binding Globulin (SHBG) / Dihydrotestosterone / Free Testosterone / T/E Ratio: 300 mg bid; for Estradiol: Week 0 baseline 16.5; for Sex Hormone Binding Globulin (SHBG): Week 0 baseline 21.83; for Dihydrotestosterone: Week 0 baseline 33.33; for Free Testosterone: Week 0 baseline 126.67; for T/E Ratio: Week 0 baseline 269/1. The protocol: Six male subjects, aged 32-40 years of age, were prescreened via a medical doctor for endocrinological abnormalities. The subjects' physical characteristics were: height 177.38+/−[…] cm, weight 88.8+/−13.65 kg, body fat percentage 14.9+/−3.5%. Subjects ingested 300 mg a-trione bid for three weeks as part of an open label design. Resting AM blood draws were taken at 0, 1, 2, and 3 weeks of supplementation. Table 1 indicates the changes in endocrine markers over the time evaluated. Results were analyzed using a Repeated Measures-ANOVA design with paired samples t-tests as appropriate. […] Therefore, a-trione can raise the T/E ratio while leaving estradiol in the safe physiological range.

Setting [1] is: 300 mg bid for three weeks, change over the time evaluated.

On to `C[C@]12CCC(=O)C=C1C(=O)C[C@@H]1[C@@H]2CC[C@]2(C)C(=O)CC[C@@H]12` [a-trione, 4-androstene-3,6,17-trione], for which the aromatase inhibiting activity result on aromatase enzyme is listed as “has been shown to have aromatase inhibiting activity in-vitro”. For the same compound, in the assay on male subjects (setting [1]), the change in estrogen was −11% and the “increase in testosterone levels” value was “+88%”. Besides, in the assay on male subjects (Week 1), the “Total Testosterone” value came out at 701.17 ng/dL, the Estradiol worked out at 16.5 pg/mL, the “Sex Hormone Binding Globulin (SHBG)” value was 20.5 nmol/L and the Dihydrotestosterone is given as 39.83 ng/dL. For the same compound, in the assay with male subjects (Week 1), the “Free Testosterone” value is recorded as 216.67 and the “T/E Ratio” value is given as 425/1. Besides, in the assay with male subjects (Week 2), the “Total Testosterone” value came out at 752.17 ng/dL, the Estradiol was 14.8 pg/mL, the “Sex Hormone Binding Globulin (SHBG)” value came out at 19.5 nmol/L and the Dihydrotestosterone came out at 45.83 ng/dL. In addition, in the assay on male subjects (Week 2), the “Free Testosterone” value is given as 252.33 and the “T/E Ratio” value is given as 508/1. In addition, in the assay on male subjects (Week 3), the “Total Testosterone” value came out at 835.33 ng/dL, the Estradiol was 14.67 pg/mL, the “Sex Hormone Binding Globulin (SHBG)” value came out at 18.83 nmol/L and the Dihydrotestosterone is 47.5 ng/dL. Moreover, in the assay on male subjects (Week 3), the “Free Testosterone” value came out at 285.67 and the “T/E Ratio” value is on record as 569/1. For the same compound, in the assay on male subjects (male endocrinological profile), the “effect on estradiol (in words)” value is on record as “small, barely significant decrease in estradiol” and the “effect on testosterone (in words)” value is on record as “very marked increase of testosterone”.

The values above are taken from patent publication US20050059646A1, “Use of 4-androstene-3,6,17-trione to elevate testosterone levels and the testosterone/estrogen ratio in males” (Proviant Technology Inc., priority 2003, published 2005).
